One compound from US20170239212A1, “[…] AND USE THEREOF AS ANTIVIRAL AGENTS” (priority 2014, published 2017) can be followed below.

Data set [1] addresses HIV long terminal repeat (LTR) promoter. The data set can be described thus: in vitro. As to conditions: Jurkat cells. In kind it is cell-based. The procedure: (§1) The compounds were also tested in the T cell derived Jurkat cell line transfected with a luciferase reporter under control of an HIV long terminal repeat (LTR) promoter. Specifically, EC50 and CC50 values were determined in parallel using 10 concentrations of compound from 3 fold serial dilutions starting a 5 uM as the highest concentration. Cells and media were added to compounds with a final concentration of DMSO of 1% and incubated at 37° C., 5% CO2 for 24, 48 and 72 hours. EC50 was measured by induced luciferase activity detected by the use of the Steady-Glo® Luciferase reagent (PROMEGA) with an EnVision (Perkin-Elmer) plate reader. CC50 was determined by the dose dependent knock down of cellular ATP detected by the use of CellTiter-Glo® Luminescent Cell Viability reagent (PROMEGA) with an EnVision (Perkin-Elmer) plate reader.

Data set [2] concerns Jurkat cell line. The data set is described as follows: in vitro. Format: cell-based. As to conditions: Jurkat cells, knock down of cellular ATP. As for the experimental part: as §1

As a reminder, the EC50 is the midpoint of the concentration-response curve. Low values mean higher potency in that assay, high ones lower potency in that assay. A word on the CC50: it is the concentration that lowers cell viability or growth by half. Read a high CC50 as better tolerance by the cells. For `CCCCCCCCCCCCCC(=O)O[C@@H]1[C@@H](C)[C@@]2(O)[C@@H](C=C(CO)C[C@]3(O)C(=O)C(C)=C[C@@H]23)[C@@H]2C(C)(C)[C@]12OC(C)=O` [PMA, phorbol 12-myristate 13-acetate], the half-maximal effective concentration (EC50) in data set [1] (LTR-luciferase, incubated 24, 48 and 72 hours (time of the listed values not stated)) is 0.1 nM. The “Selectivity (CC50:EC50)” value in data set [1] (ratio of the CC50 to the EC50) was 1. The compound also registered a half-maximal cytotoxic concentration (CC50) in data set [2] of 0.1 nM.
